Measured values: PubChem BioAssay (NCI)
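In this assay, cells in 96-well plates receive the compound at five concentrations for 48 hours. Endpoints are linearly interpolated between the surrounding concentrations. GI50 = concentration required for 50% inhibition of growth. TGI marks complete inhibition of growth.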

Key:
Assay in all cases: DTP human tumour cell line panel, 48 h
786-0 renal = tested on: 786-0 renal
A549 NSCLC = tested on: A549 NSCLC
ACHN renal = tested on: ACHN renal
CAKI-1 renal = tested on: CAKI-1 renal
CCRF-CEM leukemia = tested on: CCRF-CEM leukemia
DU-145 prostate = tested on: DU-145 prostate
EKVX NSCLC = tested on: EKVX NSCLC
HCC-2998 colon = tested on: HCC-2998 colon
HL-60(TB) leukemia = tested on: HL-60(TB) leukemia
HOP-92 NSCLC = tested on: HOP-92 NSCLC
HS 578T breast = tested on: HS 578T breast
HT29 colon = tested on: HT29 colon
K-562 leukemia = tested on: K-562 leukemia
KM12 colon = tested on: KM12 colon
M14 melanoma = tested on: M14 melanoma
MALME-3M melanoma = tested on: MALME-3M melanoma
MCF7 breast = tested on: MCF7 breast
MDA-MB-231 breast = tested on: MDA-MB-231 breast
MDA-MB-435 = tested on: MDA-MB-435
MOLT-4 leukemia = tested on: MOLT-4 leukemia
NCI-H226 lung = tested on: NCI-H226 lung
NCI-H23 lung = tested on: NCI-H23 lung
NCI-H460 lung = tested on: NCI-H460 lung
NCI-H522 lung = tested on: NCI-H522 lung
NCI/ADR-RES ovarian = tested on: NCI/ADR-RES ovarian
OVCAR-3 ovarian = tested on: OVCAR-3 ovarian
OVCAR-4 ovarian = tested on: OVCAR-4 ovarian
OVCAR-5 ovarian = tested on: OVCAR-5 ovarian
OVCAR-8 ovarian = tested on: OVCAR-8 ovarian
PC-3 prostate = tested on: PC-3 prostate
RPMI-8226 leukemia = tested on: RPMI-8226 leukemia
SF-268 CNS = tested on: SF-268 CNS
SF-539 CNS = tested on: SF-539 CNS
SK-MEL-2 melanoma = tested on: SK-MEL-2 melanoma
SK-MEL-28 melanoma = tested on: SK-MEL-28 melanoma
SN12C renal = tested on: SN12C renal
SNB-19 CNS = tested on: SNB-19 CNS
SNB-75 CNS = tested on: SNB-75 CNS
SR leukemia = tested on: SR leukemia
SW-620 colon = tested on: SW-620 colon
T-47D breast = tested on: T-47D breast
TK-10 renal = tested on: TK-10 renal
U251 CNS = tested on: U251 CNS
UACC-257 melanoma = tested on: UACC-257 melanoma
UACC-62 melanoma = tested on: UACC-62 melanoma
UO-31 renal = tested on: UO-31 renal
A498 renal = tested on: A498 renal
BT-549 breast = tested on: BT-549 breast
COLO 205 colon = tested on: COLO 205 colon
HCT-116 colon = tested on: HCT-116 colon
HCT-15 colon = tested on: HCT-15 colon
HOP-62 NSCLC = tested on: HOP-62 NSCLC
IGROV1 ovarian = tested on: IGROV1 ovarian
LOX IMVI melanoma = tested on: LOX IMVI melanoma
RXF 393 renal = tested on: RXF 393 renal
SF-295 CNS = tested on: SF-295 CNS
SK-MEL-5 melanoma = tested on: SK-MEL-5 melanoma
SK-OV-3 ovarian = tested on: SK-OV-3 ovarian

O=c1c(-c2nc3ccccc3[nH]2)cc2ccccc2n1Cc1cn(Cc2ccccc2Cl)nn1
GI50 (786-0 renal): 1.66 µM
TGI (786-0 renal): 3.27 µM
GI50 (A549 NSCLC): 2.05 µM
TGI (A549 NSCLC): 4.38 µM
GI50 (ACHN renal): 1.71 µM
TGI (ACHN renal): 3.27 µM
GI50 (CAKI-1 renal): 1.93 µM
TGI (CAKI-1 renal): 4.74 µM
GI50 (CCRF-CEM leukemia): 8.58 µM
TGI (CCRF-CEM leukemia): > 100 µM
GI50 (DU-145 prostate): 1.72 µM
TGI (DU-145 prostate): 3.21 µM
GI50 (EKVX NSCLC): 2.74 µM
TGI (EKVX NSCLC): 20.2 µM
GI50 (HCC-2998 colon): 4.19 µM
TGI (HCC-2998 colon): 37.4 µM
GI50 (HL-60(TB) leukemia): 6.22 µM
TGI (HL-60(TB) leukemia): > 100 µM
GI50 (HOP-92 NSCLC): 1.85 µM
TGI (HOP-92 NSCLC): 4.93 µM
GI50 (HS 578T breast): 1.93 µM
TGI (HS 578T breast): 5.91 µM
GI50 (HT29 colon): 2.2 µM
TGI (HT29 colon): 4.7 µM
GI50 (K-562 leukemia): 3.33 µM
TGI (K-562 leukemia): 12.9 µM
GI50 (KM12 colon): 2.5 µM
TGI (KM12 colon): 7.72 µM
GI50 (M14 melanoma): 2.65 µM
TGI (M14 melanoma): 9.33 µM
GI50 (MALME-3M melanoma): 1.62 µM
TGI (MALME-3M melanoma): 3.65 µM
GI50 (MCF7 breast): 1.78 µM
TGI (MCF7 breast): 3.77 µM
GI50 (MDA-MB-231 breast): 1.71 µM
TGI (MDA-MB-231 breast): 3.79 µM
GI50 (MDA-MB-435): 1.9 µM
TGI (MDA-MB-435): 3.93 µM
GI50 (MOLT-4 leukemia): 2.36 µM
TGI (MOLT-4 leukemia): > 100 µM
GI50 (NCI-H226 lung): 2.3 µM
TGI (NCI-H226 lung): 6.99 µM
GI50 (NCI-H23 lung): 3.43 µM
TGI (NCI-H23 lung): 24.3 µM
GI50 (NCI-H460 lung): 2.01 µM
TGI (NCI-H460 lung): 3.88 µM
GI50 (NCI-H522 lung): 2.24 µM
TGI (NCI-H522 lung): 7.98 µM
GI50 (NCI/ADR-RES ovarian): 1.94 µM
TGI (NCI/ADR-RES ovarian): 4.22 µM
GI50 (OVCAR-3 ovarian): 2.01 µM
TGI (OVCAR-3 ovarian): 4.17 µM
GI50 (OVCAR-4 ovarian): 1.72 µM
TGI (OVCAR-4 ovarian): 3.44 µM
GI50 (OVCAR-5 ovarian): 2.1 µM
TGI (OVCAR-5 ovarian): 4.78 µM
GI50 (OVCAR-8 ovarian): 2.56 µM
TGI (OVCAR-8 ovarian): 9.27 µM
GI50 (PC-3 prostate): 2.6 µM
TGI (PC-3 prostate): 7.5 µM
GI50 (RPMI-8226 leukemia): 3.02 µM
TGI (RPMI-8226 leukemia): 10.8 µM
GI50 (SF-268 CNS): 2.4 µM
TGI (SF-268 CNS): 8.74 µM
GI50 (SF-539 CNS): 1.78 µM
TGI (SF-539 CNS): 3.66 µM
GI50 (SK-MEL-2 melanoma): 3.07 µM
TGI (SK-MEL-2 melanoma): 10.8 µM
GI50 (SK-MEL-28 melanoma): 1.82 µM
TGI (SK-MEL-28 melanoma): 3.35 µM
GI50 (SN12C renal): 1.87 µM
TGI (SN12C renal): 3.75 µM
GI50 (SNB-19 CNS): 4.32 µM
TGI (SNB-19 CNS): 28.3 µM
GI50 (SNB-75 CNS): 1.36 µM
TGI (SNB-75 CNS): 3.2 µM
GI50 (SR leukemia): 2.41 µM
TGI (SR leukemia): 8.64 µM
GI50 (SW-620 colon): 2.87 µM
TGI (SW-620 colon): 10.4 µM
GI50 (T-47D breast): 2.85 µM
TGI (T-47D breast): 9.88 µM
GI50 (TK-10 renal): 2.52 µM
TGI (TK-10 renal): 6.65 µM
GI50 (U251 CNS): 2.41 µM
TGI (U251 CNS): 7.13 µM
GI50 (UACC-257 melanoma): 3.18 µM
TGI (UACC-257 melanoma): 12.6 µM
GI50 (UACC-62 melanoma): 1.73 µM
TGI (UACC-62 melanoma): 3.57 µM
GI50 (UO-31 renal): 1.33 µM
TGI (UO-31 renal): 2.88 µM

C=C1C(=O)O[C@H]2[C@H]1CC/C(Cn1cc(-c3ccsc3)nn1)=C\CC[C@@]1(C)O[C@@H]21
GI50 (786-0 renal): 1.76 µM
TGI (786-0 renal): 3.96 µM
GI50 (A498 renal): 2.65 µM
TGI (A498 renal): 12.6 µM
GI50 (A549 NSCLC): 8.61 µM
TGI (A549 NSCLC): 23.1 µM
GI50 (ACHN renal): 1.32 µM
TGI (ACHN renal): 2.69 µM
GI50 (BT-549 breast): 1.8 µM
TGI (BT-549 breast): 5.21 µM
GI50 (CAKI-1 renal): 1.06 µM
TGI (CAKI-1 renal): 2.25 µM
GI50 (CCRF-CEM leukemia): 1.63 µM
TGI (CCRF-CEM leukemia): 12.3 µM
GI50 (COLO 205 colon): 1.45 µM
TGI (COLO 205 colon): 3.24 µM
GI50 (DU-145 prostate): 1.43 µM
TGI (DU-145 prostate): 2.88 µM
GI50 (EKVX NSCLC): 2.33 µM
TGI (EKVX NSCLC): 7.76 µM
GI50 (HCC-2998 colon): 1.84 µM
TGI (HCC-2998 colon): 3.42 µM
GI50 (HCT-116 colon): 1.16 µM
TGI (HCT-116 colon): 2.76 µM
GI50 (HCT-15 colon): 1.11 µM
TGI (HCT-15 colon): 2.54 µM
GI50 (HL-60(TB) leukemia): 1.91 µM
TGI (HL-60(TB) leukemia): 7 µM
GI50 (HOP-62 NSCLC): 4.9 µM
TGI (HOP-62 NSCLC): 18.9 µM
GI50 (HOP-92 NSCLC): 1.66 µM
TGI (HOP-92 NSCLC): 3.62 µM
GI50 (HS 578T breast): 2.82 µM
TGI (HS 578T breast): 16 µM
GI50 (HT29 colon): 1.66 µM
TGI (HT29 colon): 3.64 µM
GI50 (IGROV1 ovarian): 1.92 µM
TGI (IGROV1 ovarian): 5.03 µM
GI50 (K-562 leukemia): 2.51 µM
TGI (K-562 leukemia): 11.7 µM
GI50 (KM12 colon): 6.45 µM
TGI (KM12 colon): 19.6 µM
GI50 (LOX IMVI melanoma): 1.28 µM
TGI (LOX IMVI melanoma): 2.61 µM
GI50 (M14 melanoma): 1.93 µM
TGI (M14 melanoma): 5.02 µM
GI50 (MALME-3M melanoma): 1.61 µM
TGI (MALME-3M melanoma): 3.34 µM
GI50 (MDA-MB-231 breast): 1.75 µM
TGI (MDA-MB-231 breast): 3.61 µM
GI50 (MDA-MB-435): 1.85 µM
TGI (MDA-MB-435): 4.54 µM
GI50 (MOLT-4 leukemia): 2.59 µM
TGI (MOLT-4 leukemia): 6.9 µM
GI50 (NCI-H226 lung): 2.09 µM
TGI (NCI-H226 lung): 5.51 µM
GI50 (NCI-H23 lung): 1.82 µM
TGI (NCI-H23 lung): 4 µM
GI50 (NCI-H460 lung): 4.71 µM
TGI (NCI-H460 lung): 18.9 µM
GI50 (NCI-H522 lung): 1.39 µM
TGI (NCI-H522 lung): 3.17 µM
GI50 (NCI/ADR-RES ovarian): 3.79 µM
TGI (NCI/ADR-RES ovarian): 16.9 µM
GI50 (OVCAR-3 ovarian): 1.06 µM
TGI (OVCAR-3 ovarian): 2.28 µM
GI50 (OVCAR-4 ovarian): 2.48 µM
TGI (OVCAR-4 ovarian): 7.61 µM
GI50 (OVCAR-5 ovarian): 2.29 µM
TGI (OVCAR-5 ovarian): 7.13 µM
GI50 (OVCAR-8 ovarian): 2.96 µM
TGI (OVCAR-8 ovarian): 11 µM
GI50 (PC-3 prostate): 4.21 µM
TGI (PC-3 prostate): 14.9 µM
GI50 (RXF 393 renal): 1.07 µM
TGI (RXF 393 renal): 2.46 µM
GI50 (SF-268 CNS): 2.53 µM
TGI (SF-268 CNS): 8.15 µM
GI50 (SF-295 CNS): 9.61 µM
TGI (SF-295 CNS): 21.5 µM
GI50 (SF-539 CNS): 1.8 µM
TGI (SF-539 CNS): 3.47 µM
GI50 (SK-MEL-2 melanoma): 2.27 µM
TGI (SK-MEL-2 melanoma): 5.34 µM
GI50 (SK-MEL-28 melanoma): 1.81 µM
TGI (SK-MEL-28 melanoma): 4.02 µM
GI50 (SK-MEL-5 melanoma): 1.83 µM
TGI (SK-MEL-5 melanoma): 3.88 µM
GI50 (SK-OV-3 ovarian): 17.4 µM
TGI (SK-OV-3 ovarian): 31.4 µM
GI50 (SN12C renal): 2.45 µM
TGI (SN12C renal): 7.33 µM
GI50 (SNB-19 CNS): 9.49 µM
TGI (SNB-19 CNS): 23.2 µM
GI50 (SNB-75 CNS): 3.23 µM
TGI (SNB-75 CNS): 18.2 µM
GI50 (SR leukemia): 0.56 µM
TGI (SR leukemia): 9.39 µM
GI50 (SW-620 colon): 1.32 µM
TGI (SW-620 colon): 2.68 µM
GI50 (T-47D breast): 2.03 µM
TGI (T-47D breast): 5.52 µM
GI50 (TK-10 renal): 1.52 µM
TGI (TK-10 renal): 3.16 µM
GI50 (U251 CNS): 2.5 µM
TGI (U251 CNS): 8 µM
GI50 (UO-31 renal): 1.35 µM
TGI (UO-31 renal): 3.18 µM
